For test [1], the target named is T1, Protein-tyrosine kinase 6 (Homo sapiens, UniProt Q13882). The note with it: at 10 µM.
Test [2] deals with Calcium/calmodulin-dependent protein kinase type 1G (Homo sapiens) (UniProt Q96NX5). Conditions: at 10 µM.
In test [3] the target is Cyclin-dependent kinase-like 3 (Homo sapiens) (UniProt Q8IVW4). As to the kind of experiment: Selectivity interaction (KinomeScan (DiscoverX)) EUB0001079a CDKL3. Conditions: at 1 µM.
Test [4] addresses Tyrosine-protein kinase BTK (Homo sapiens, UniProt Q06187). As to the kind of experiment: Selectivity interaction (Millipore kinase profiler) EUB0000124b BTK. Conditions: at 10 µM.
Test [5] concerns the target Calcium/calmodulin-dependent protein kinase type 1 (Homo sapiens) (UniProt Q14012). The test is described as follows: Selectivity interaction (KinomeScan (DiscoverX)) EUB0001049a CAMK1. The note with it: at 1 µM.
The target of test [6] is Serine/threonine-protein kinase 10 (Homo sapiens) (UniProt O94804). As to the kind of experiment: Selectivity interaction (KinomeScan (DiscoverX)) EUB0001049a STK10. The note with it: at 1 µM.
Test [7] addresses T2, Megakaryocyte-associated tyrosine-protein kinase (Homo sapiens) (UniProt P42679).
T2 sequence (whole entry): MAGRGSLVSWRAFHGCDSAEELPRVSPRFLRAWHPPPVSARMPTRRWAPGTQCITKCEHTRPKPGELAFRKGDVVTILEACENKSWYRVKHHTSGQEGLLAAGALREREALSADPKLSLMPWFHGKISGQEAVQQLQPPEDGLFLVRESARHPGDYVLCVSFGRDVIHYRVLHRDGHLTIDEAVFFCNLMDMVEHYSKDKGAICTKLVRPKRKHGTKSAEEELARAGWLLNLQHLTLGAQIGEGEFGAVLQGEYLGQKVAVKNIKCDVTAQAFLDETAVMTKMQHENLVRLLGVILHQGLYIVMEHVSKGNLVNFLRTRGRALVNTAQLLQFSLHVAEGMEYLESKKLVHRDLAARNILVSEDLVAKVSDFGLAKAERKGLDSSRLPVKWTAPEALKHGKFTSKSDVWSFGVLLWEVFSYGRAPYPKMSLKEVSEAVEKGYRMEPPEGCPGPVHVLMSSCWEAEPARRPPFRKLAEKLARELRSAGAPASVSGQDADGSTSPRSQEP
As to the kind of experiment: Selectivity interaction (KinomeScan (DiscoverX)) EUB0000655a MATK. The note with it: at 10 µM.

For test [8], the target named is T3, MAP/microtubule affinity-regulating kinase 4 (Homo sapiens) (UniProt Q96L34).
T3 sequence (whole entry): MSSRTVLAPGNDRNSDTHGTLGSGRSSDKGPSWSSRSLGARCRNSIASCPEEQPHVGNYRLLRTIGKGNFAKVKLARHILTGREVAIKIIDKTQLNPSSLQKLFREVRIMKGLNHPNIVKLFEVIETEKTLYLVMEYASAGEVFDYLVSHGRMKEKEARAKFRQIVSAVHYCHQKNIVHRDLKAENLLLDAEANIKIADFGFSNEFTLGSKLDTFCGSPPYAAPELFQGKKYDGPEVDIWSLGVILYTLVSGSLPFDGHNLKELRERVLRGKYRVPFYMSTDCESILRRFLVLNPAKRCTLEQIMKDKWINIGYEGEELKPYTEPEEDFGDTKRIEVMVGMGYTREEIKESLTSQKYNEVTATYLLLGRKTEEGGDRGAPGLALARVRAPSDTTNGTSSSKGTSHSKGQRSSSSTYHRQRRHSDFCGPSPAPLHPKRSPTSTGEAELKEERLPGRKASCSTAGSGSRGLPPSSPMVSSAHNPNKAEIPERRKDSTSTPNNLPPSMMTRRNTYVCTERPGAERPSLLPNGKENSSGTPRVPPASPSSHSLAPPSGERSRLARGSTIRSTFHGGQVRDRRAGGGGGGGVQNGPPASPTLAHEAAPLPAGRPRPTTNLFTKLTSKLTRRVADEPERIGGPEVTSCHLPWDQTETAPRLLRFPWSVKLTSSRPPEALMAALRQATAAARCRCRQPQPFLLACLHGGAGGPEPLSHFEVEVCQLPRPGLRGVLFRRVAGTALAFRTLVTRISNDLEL
As to the kind of experiment: Selectivity interaction (KinomeScan (DiscoverX)) EUB0000045b MARK4.

Test [9] concerns the target T4, Serine/threonine-protein kinase PLK1 (Homo sapiens, UniProt P53350). As to the kind of experiment: Selectivity interaction (KinomeScan (DiscoverX)) EUB0000045b PLK1.
Test [10] deals with Ribosomal protein S6 kinase alpha-4 (Homo sapiens) (UniProt O75676). The test is described as follows: Selectivity interaction (KinomeScan (DiscoverX)) EUB0000045b RPS6KA4. The note with it: at 10 µM.
Test [11] concerns the target Focal adhesion kinase 1 (Homo sapiens, UniProt Q05397). As to the kind of experiment: Selectivity interaction (KinomeScan (DiscoverX)) EUB0000666a PTK2. Conditions: at 10 µM.
The target in test [12] is Ribosomal protein S6 kinase alpha-6 (Homo sapiens, UniProt Q9UK32). As to the kind of experiment: Selectivity interaction (KinomeScan (DiscoverX)) EUB0000666a RPS6KA6. Conditions: at 10 µM.
The target in test [13] is T1, Protein-tyrosine kinase 6. The test is described as follows: Selectivity interaction (Kinase panel (Z-LYTE Assay)) EUB0001632a PTK6. The note with it: at 10 µM.
Test [14] has as its target Serine/threonine-protein kinase SIK3 (Homo sapiens) (UniProt Q9Y2K2). As to the kind of experiment: Selectivity interaction (ActivX KiNativ screen (kinase selectivity in THP-1 cell lysates)) EUB0000639a SIK3. The format is subcellular. Conditions: lysate.
The target in test [15] is Death-associated protein kinase 3 (Homo sapiens) (UniProt O43293). As to the kind of experiment: Selectivity interaction (Kinase panel (DSF assay)) EUB0001559a DAPK3. (DSF heats the sample and reads unfolding from a dye or from intrinsic fluorescence.)
The target of test [16] is T4, Serine/threonine-protein kinase PLK1. As to the kind of experiment: Selectivity interaction (KinomeScan (DiscoverX)) EUB0000595a PLK1. Conditions: at 10 µM.
The target in test [17] is Serine/threonine-protein kinase 10 (Homo sapiens) (UniProt O94804). The test is described as follows: Selectivity interaction (ActivX KiNativ screen (ex vivo kinase selectivity in human PBMCs)) EUB0001619a STK10. It counts as cell-based. Conditions: PBMC, at 1 µM.
Test [18] concerns the target Aurora kinase B (Homo sapiens, UniProt Q96GD4). The test is described as follows: Selectivity interaction (KinomeScan (DiscoverX)) EUB0000618a AURKB. The note with it: at 10 µM.
The target of test [19] is Vascular endothelial growth factor receptor 1 (Homo sapiens) (UniProt P17948). The test is described as follows: Selectivity interaction (KinomeScan (DiscoverX)) EUB0000618a FLT1. Conditions: at 10 µM.

Sequence of Serine/threonine-protein kinase SIK3 (Homo sapiens) (Q9Y2K2 whole entry, looked up): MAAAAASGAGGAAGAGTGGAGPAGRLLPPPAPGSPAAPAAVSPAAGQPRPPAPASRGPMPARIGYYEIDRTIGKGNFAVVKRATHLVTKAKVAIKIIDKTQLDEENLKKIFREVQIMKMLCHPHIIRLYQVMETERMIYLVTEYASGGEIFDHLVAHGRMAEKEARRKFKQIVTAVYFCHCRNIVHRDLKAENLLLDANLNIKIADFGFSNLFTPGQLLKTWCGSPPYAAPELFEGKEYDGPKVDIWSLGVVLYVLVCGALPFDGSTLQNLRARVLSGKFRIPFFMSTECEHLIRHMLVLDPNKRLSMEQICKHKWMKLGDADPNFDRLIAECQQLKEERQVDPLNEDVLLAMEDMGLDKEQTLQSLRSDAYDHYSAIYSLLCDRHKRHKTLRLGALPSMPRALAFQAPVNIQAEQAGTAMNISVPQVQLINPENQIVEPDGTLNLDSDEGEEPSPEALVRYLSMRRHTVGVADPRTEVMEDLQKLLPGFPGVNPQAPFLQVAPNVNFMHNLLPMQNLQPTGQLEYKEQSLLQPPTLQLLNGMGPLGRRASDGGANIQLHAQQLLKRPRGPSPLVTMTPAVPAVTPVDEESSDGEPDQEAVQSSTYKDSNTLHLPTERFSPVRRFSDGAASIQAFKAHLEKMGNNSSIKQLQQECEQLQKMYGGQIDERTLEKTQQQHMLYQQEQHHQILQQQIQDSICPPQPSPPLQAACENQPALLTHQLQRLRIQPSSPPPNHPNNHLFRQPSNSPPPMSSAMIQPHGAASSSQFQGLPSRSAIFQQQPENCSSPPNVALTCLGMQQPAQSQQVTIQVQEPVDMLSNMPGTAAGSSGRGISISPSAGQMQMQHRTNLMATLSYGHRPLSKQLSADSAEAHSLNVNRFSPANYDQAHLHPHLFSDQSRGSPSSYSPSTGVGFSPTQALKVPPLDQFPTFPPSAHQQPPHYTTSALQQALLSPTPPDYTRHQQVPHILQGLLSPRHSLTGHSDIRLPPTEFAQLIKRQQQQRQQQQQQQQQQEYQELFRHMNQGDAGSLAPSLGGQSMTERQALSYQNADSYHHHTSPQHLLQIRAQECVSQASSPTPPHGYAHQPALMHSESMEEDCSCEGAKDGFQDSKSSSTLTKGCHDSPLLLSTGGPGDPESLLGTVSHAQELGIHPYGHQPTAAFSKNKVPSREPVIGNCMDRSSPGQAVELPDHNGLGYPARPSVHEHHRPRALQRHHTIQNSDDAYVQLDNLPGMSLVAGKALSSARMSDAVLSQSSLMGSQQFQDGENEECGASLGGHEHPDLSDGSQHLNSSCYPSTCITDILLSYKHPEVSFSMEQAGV
T4 sequence (P53350 whole entry): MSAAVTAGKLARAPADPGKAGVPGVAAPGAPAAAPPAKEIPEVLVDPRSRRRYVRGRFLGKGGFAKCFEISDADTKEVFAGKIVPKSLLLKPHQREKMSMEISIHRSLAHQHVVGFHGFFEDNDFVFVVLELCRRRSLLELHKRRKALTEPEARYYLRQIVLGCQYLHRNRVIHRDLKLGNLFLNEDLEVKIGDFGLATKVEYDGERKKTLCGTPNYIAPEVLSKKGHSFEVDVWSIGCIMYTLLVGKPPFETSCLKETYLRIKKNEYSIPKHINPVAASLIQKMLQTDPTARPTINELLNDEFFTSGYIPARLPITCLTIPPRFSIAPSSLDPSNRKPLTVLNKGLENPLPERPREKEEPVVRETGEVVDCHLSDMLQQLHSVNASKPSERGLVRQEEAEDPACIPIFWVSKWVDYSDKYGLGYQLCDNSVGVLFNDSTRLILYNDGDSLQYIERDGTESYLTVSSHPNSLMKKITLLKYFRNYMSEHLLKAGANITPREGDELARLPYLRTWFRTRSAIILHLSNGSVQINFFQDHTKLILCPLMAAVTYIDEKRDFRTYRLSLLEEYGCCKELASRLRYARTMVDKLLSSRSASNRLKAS
T1 sequence (Q13882 whole entry, looked up): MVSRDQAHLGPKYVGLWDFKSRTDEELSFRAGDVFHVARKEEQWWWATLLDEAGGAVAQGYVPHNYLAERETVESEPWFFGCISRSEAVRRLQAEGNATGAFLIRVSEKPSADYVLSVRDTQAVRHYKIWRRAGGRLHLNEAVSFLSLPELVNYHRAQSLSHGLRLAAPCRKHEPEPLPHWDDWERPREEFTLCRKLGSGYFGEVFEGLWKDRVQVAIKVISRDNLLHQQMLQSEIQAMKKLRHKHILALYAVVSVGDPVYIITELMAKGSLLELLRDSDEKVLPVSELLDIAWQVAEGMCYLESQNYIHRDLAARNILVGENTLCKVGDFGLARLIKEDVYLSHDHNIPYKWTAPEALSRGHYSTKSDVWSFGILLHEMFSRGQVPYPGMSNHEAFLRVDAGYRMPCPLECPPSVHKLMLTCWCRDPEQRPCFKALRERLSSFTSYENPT
Sequence of Serine/threonine-protein kinase 10 (Homo sapiens) (O94804 whole entry, looked up): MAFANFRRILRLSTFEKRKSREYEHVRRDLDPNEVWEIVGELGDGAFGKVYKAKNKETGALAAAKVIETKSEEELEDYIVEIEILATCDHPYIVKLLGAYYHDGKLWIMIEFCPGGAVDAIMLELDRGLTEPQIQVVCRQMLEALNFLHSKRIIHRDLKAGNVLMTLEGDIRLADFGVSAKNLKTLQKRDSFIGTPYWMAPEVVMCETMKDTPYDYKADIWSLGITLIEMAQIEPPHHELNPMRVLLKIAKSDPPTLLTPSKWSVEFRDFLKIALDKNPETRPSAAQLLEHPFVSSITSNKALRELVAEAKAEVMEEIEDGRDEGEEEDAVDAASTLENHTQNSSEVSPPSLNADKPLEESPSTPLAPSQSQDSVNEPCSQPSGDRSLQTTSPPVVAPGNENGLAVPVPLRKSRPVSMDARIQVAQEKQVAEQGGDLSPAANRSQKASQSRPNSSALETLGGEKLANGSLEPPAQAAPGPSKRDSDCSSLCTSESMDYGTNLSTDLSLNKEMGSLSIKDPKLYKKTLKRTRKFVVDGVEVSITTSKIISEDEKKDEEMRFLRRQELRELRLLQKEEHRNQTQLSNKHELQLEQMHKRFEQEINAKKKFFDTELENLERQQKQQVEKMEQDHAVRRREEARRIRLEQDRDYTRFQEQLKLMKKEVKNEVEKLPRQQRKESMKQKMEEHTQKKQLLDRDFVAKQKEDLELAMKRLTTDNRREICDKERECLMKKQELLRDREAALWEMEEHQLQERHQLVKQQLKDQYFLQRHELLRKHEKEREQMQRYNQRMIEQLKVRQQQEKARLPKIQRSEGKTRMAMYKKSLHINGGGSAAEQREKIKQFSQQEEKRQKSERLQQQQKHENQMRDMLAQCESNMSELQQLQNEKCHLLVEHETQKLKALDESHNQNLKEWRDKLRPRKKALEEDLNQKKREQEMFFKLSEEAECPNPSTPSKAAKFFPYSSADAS
Sequence of Tyrosine-protein kinase BTK (Q06187 whole entry): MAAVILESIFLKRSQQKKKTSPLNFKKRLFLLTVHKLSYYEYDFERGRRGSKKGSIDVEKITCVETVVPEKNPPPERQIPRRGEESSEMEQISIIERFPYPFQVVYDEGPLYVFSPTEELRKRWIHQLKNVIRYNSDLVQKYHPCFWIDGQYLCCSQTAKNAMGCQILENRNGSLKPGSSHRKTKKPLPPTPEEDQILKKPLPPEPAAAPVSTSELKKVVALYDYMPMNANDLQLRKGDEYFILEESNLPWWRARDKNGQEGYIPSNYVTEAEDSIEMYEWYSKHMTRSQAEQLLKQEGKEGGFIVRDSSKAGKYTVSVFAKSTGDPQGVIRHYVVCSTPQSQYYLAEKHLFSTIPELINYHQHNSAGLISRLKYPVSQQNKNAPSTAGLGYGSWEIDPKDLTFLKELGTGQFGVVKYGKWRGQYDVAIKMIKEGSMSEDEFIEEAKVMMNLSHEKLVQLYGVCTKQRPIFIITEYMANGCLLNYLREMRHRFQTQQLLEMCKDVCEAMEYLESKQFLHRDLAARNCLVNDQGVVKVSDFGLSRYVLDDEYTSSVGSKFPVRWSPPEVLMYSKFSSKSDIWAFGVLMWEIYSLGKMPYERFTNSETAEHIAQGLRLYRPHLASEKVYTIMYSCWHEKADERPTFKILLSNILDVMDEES
Sequence of Focal adhesion kinase 1 (Q05397 2-1052 limits assumed): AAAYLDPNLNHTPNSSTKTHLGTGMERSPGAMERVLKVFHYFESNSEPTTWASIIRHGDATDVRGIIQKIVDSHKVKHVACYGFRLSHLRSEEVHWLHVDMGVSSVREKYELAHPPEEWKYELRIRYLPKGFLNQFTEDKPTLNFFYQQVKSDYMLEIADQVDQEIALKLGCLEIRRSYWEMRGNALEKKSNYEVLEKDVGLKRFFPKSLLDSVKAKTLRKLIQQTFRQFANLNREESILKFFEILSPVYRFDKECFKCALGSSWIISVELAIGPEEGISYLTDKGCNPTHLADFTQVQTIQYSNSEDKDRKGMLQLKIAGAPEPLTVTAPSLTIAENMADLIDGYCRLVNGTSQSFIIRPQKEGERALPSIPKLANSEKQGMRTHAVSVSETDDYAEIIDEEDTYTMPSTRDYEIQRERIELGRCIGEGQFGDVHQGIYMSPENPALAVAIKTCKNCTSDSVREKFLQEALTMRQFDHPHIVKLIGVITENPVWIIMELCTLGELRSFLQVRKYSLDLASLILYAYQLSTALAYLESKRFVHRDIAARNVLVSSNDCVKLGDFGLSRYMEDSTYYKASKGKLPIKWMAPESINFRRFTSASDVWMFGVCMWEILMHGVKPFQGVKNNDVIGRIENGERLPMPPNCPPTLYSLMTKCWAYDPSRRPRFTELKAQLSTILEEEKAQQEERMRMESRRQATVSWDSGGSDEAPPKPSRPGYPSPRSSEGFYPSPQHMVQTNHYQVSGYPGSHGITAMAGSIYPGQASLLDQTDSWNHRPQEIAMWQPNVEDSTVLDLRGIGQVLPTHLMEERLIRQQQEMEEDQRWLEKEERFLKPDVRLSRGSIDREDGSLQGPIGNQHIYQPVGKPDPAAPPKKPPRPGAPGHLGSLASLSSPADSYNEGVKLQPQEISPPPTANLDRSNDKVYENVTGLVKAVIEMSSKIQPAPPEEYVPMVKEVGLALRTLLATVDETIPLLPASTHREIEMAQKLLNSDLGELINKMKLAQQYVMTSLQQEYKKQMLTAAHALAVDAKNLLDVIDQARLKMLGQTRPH

In turn, `Cc1cc([C@@H](C)Nc2ccccc2C(=O)O)c2nc(N3CCOCC3)cc(=O)n2c1` [AZD-6482] had a % of control in test [1] of 75%.

With `CCN(CC)CCCCNc1ncc2cc(-c3cc(OC)cc(OC)c3)c(NC(=O)NC(C)(C)C)nc2n1`, the % of control in [2] is 100%.

Take `Nc1cnc(N2CCc3cc(S(=O)(=O)Nc4c(F)cc(Cl)cc4F)cc(N4CCCC4=O)c32)nc1` [TP-020n]: in test [3], the % of control came out at 100%.

In turn, `CC(=O)Nc1cccc(-n2c(=O)n(C3CC3)c(=O)c3c(Nc4ccc(I)cc4F)n(C)c(=O)c(C)c32)c1` yielded a % of control in test [4] of 104%.

For the compound `COc1cc(Nc2nc(C)cc(-c3cnn4nc(OC)ccc34)n2)cc(C(F)(F)F)c1`, the % of control was 75% in test [5] and 86% in test [6].

As to `CN(C)CCOc1ccc(-c2nc(-c3ccncc3)c(-c3ccc4c(c3)CC/C4=N\O)[nH]2)cc1`, the % of control in [7] was 100%.

For `C=CC(=O)Nc1cc(-n2c(=O)ccc3cnc4ccc(-c5ccc(NS(C)(=O)=O)cc5)cc4c32)ccc1C`, the % of control is 80% in test [8] (at 1 µM); 76% in test [8] (at 10 µM); 100% in test [9] (at 1 µM); 100% in test [9] (at 10 µM); 81% in [10].

For `O=C(NOC[C@H](O)CO)c1ccc(F)c(F)c1Nc1ccc(I)cc1F`, the results for the % of control in test [11] and in test [12] were 85% and 75%, respectively.

In the case of `Cn1cc(-n2cnc3c(NCc4nc5cc(Cl)c(Cl)cc5[nH]4)nc(N4CCOCC4)nc32)cn1`, the % of control in test [13] came out at 9.47%.

Consider `CC[C@@H]1[C@H](F)C(=O)N[C@@H]1COc1nccc2cc(C(N)=O)c(OC)cc12` [ZIMLOVISERTIB], for which the % of inhibition in test [14] (at 0.01 µM) is 5.4%; in test [14] (at 0.04 µM) it was 3.4%; in test [14] (at 0.2 µM), 15.7%; in test [14] (at 1 µM), -1.4%; in test [14] (at 5 µM), -7.8%.

As to `CN(C(=O)c1cnn2cccnc12)c1cc2c(cc1N1CCOCC1)C(=O)N(C[C@@H](F)C(C)(C)O)C2`, the dTM in test [15] worked out at 0.2 K.

`COCC(=O)NC/C=C/c1ccc2ncnc(Nc3ccc(Oc4ccc(C)nc4)c(C)c3)c2c1` [CP-724714] had a % of control in [16] of 81%.

With `N#Cc1cccc(-c2c[nH]c3ncnc(N4CCOCC4)c23)c1`, the % of inhibition in test [17] is 60%.

`O[C@H]1CC[C@H](Nc2ncc3nc(Nc4c(F)cc(F)cc4F)n([C@H]4CCOC4)c3n2)CC1`: the % of control worked out at 100% in test [18] and 86% in test [19].
